Laboratory results from PMC13044524 (Molecular Cancer Therapeutics, 2025).
pIC50: −log10 of the molar value.

Legend:
uterine tissue = assay: Rat uterine wet weight assay; format: in vivo, Sprague–Dawley CD-IGS rats; conditions: immature rats; for epithelia height of uterine tissue (histologic staining): 3 days, compared with vehicle; for uterine wet weight (UWW): once daily for 3 days
MCF-7 cells = assay: Cell proliferation assay, MCF-7; format: cell-based; conditions: Homo sapiens, MCF7, 144 h, read-out: IC50 E2-mediated proliferation
[1] = tested on: bone (femur and tibia) of OVX mice; assay: Osteoporosis; format: in vivo, C57BL/6 mice; conditions: 12 weeks of treatment

Row | epithelia height of uterine tissue (histologic staining) (uterine tissue) | uterine wet weight (UWW) (uterine tissue) | pIC50 (MCF-7 cells) | SMILES | bone mineral density (BMD) of femur and tibia [1]
1 |  | seemed to decrease uterine weight | 9.70 | C[C@]12CC[C@@H]3c4ccc(O)cc4C[C@@H](CCCCCCCCC[S+]([O-])CCCC(F)(F)C(F)(F)F)[C@H]3[C@@H]1CC[C@@H]2O (stereo partly drawn) [Fulvestrant] | further decreased BMD
2 | dramatically increased | significantly increase UWW |  | CC/C(=C(\c1ccccc1)c1ccc(OCCN(C)C)cc1)c1ccccc1 [Tamoxifen] | significantly increased BMD
3 |  |  | 9.52 | CCNCCc1ccc(CN(CC)c2cc(OC)ccc2[C@@H]2CCc3cc(O)ccc3C2)cc1 [elacestrant] | 

Row | SMILES | epithelia height of uterine tissue (histologic staining) (uterine tissue) | uterine wet weight (UWW) (uterine tissue) | pIC50 (MCF-7 cells) | bone mineral density (BMD) of femur and tibia [1]
4 | C[C@@H]1Cc2c([nH]c3ccccc23)[C@@H](c2c(F)cc(/C=C/C(=O)O)cc2F)N1CC(C)(C)F [AZD9496, (E)-3-(3,5-Difluoro-4-((1R,3R)-2-(2-fluoro-2-methylpropyl)-3-methyl-2,3,4,9-tetrahydro-1H-pyrido[3,4-b]indol-1-yl)phenyl)acrylic acid] | slightly increased | did not affect uterine weight significantly |  | 
